From ChEMBL document CHEMBL5252653, “Design, Synthesis, and Bioevaluation of Dexmedetomidine Prodrug” (ACS Med Chem Lett, 2023)

Legend:
Rattus norvegicus [1] = assay: Sedative activity in Sprague-Dawley rat at 10 to 110 microg/ml, iv administered as bolus dose by dixon analysis; type: functional
[2] = Toxicity in Sprague-Dawley rat assessed as survival rate at 2 times of EC50; settings: in vivo, read-out: Activity
Rattus norvegicus [3] = species: Rattus norvegicus; assay: Sedative activity in Sprague-Dawley rat assessed as onset time at 2 times of EC50; type: functional; settings: dose 10-110 µg/ml; route iv
Rattus norvegicus [4] = assay: Sedative activity in Sprague-Dawley rat assessed as duration time at 2 times of EC50 administered as bolus dose; type: functional
[5] = Prodrug conversion in Sprague-Dawley rat assessed as dexmedetomidine release at 2 times of ED50; type: ADME; settings: in vivo
[6] = Cardiotoxicity in Sprague-Dawley rat assessed as decrease in blood pressure at 20 to 80 microg/ml, iv administered as bolus dose by ECG analysis; type: toxicity, organism-based; parameters: scale not given: the % may be the effect or the level left; settings: in vivo, at 20 to 80 µg/mL, dose 20-80 µg/ml
[7] = Cardiotoxicity in Sprague-Dawley rat assessed as decrease in blood pressure at 20 to 80 microg/ml, iv administered as bolus dose measured for 45 mins by ECG analysis; type: toxicity, organism-based; parameters: scale not given: the % may be the effect or the level left; settings: in vivo, 0.75 h, at 20 to 80 µg/mL, dose 20-80 µg/ml
[8] = Prodrug conversion in Sprague-Dawley rat plasma assessed as dexmedetomidine release measured at 5 mins by HPLC analysis; type: ADME, cell-free
[9] = Cardiotoxicity in Sprague-Dawley rat assessed as reduction in heart rate at 20 to 80 microg/ml, iv administered as bolus dose by ECG analysis; type: toxicity, organism-based; settings: in vivo, dose 20-80 µg/ml
[10] = Prodrug conversion in Sprague-Dawley rat plasma assessed as dexmedetomidine release measured at 30 mins by HPLC analysis; type: ADME, cell-free; settings: 0.5 h
[11] = Prodrug conversion in Sprague-Dawley rat plasma assessed as dexmedetomidine release measured at 15 mins by HPLC analysis; type: ADME, cell-free; settings: 0.25 h
[12] = Cardiotoxicity in Sprague-Dawley rat assessed as change in heart rate at 20 to 80 microg/ml, iv administered as bolus dose by ECG analysis; type: toxicity, organism-based; settings: in vivo, at 20 to 80 µg/mL, dose 20-80 µg/ml
[13] = Prodrug conversion in Sprague-Dawley rat plasma assessed as dexmedetomidine release measured at 1 hr by HPLC analysis; type: ADME, cell-free
[14] = Cardiotoxicity in Sprague-Dawley rat assessed as bradycardia at 20 to 80 microg/ml, iv administered as bolus dose by ECG analysis; type: toxicity, organism-based; settings: in vivo, at 20 to 80 µg/mL, dose 20-80 µg/ml
[15] = Prodrug conversion in Sprague-Dawley rat plasma assessed as dexmedetomidine release measured at 2 mins by HPLC analysis; type: ADME, cell-free

Cc1cccc([C@H](C)c2cncn2COP(=O)([O-])[O-])c1C.[Na+].[Na+]
ED50 (Rattus norvegicus [1]): 0.0402 mg/kg
survival [2]: 100%
Time (Rattus norvegicus [3]): 206.5 s
Time (Rattus norvegicus [4]): 3966.6 s
Drug metabolism [5]: 45.5 µg/kg
Activity [6]: 15.15%

CCOC(=O)n1cnc([C@@H](C)c2cccc(C)c2C)c1.Cl
ED50 (Rattus norvegicus [1]): 0.0213 mg/kg
survival [2]: 100%
Time (Rattus norvegicus [3]): 289.1 s
Time (Rattus norvegicus [4]): 1971.4 s
Drug metabolism [5]: 27.61 µg/kg

CC(=O)OCn1cnc([C@@H](C)c2cccc(C)c2C)c1.Cl
ED50 (Rattus norvegicus [1]): 0.0321 mg/kg
survival [2]: 100%
Time (Rattus norvegicus [3]): 252.4 s
Time (Rattus norvegicus [4]): 2483.6 s
Drug metabolism [5]: 41.68 µg/kg
Activity [7]: 29.66%

Cc1cccc([C@H](C)c2cn(COC(=O)C(C)C)cn2)c1C.Cl
ED50 (Rattus norvegicus [1]): 0.0399 mg/kg
Drug metabolism [8]: Metabolite_Detected
survival [2]: 100%
Time (Rattus norvegicus [3]): 63.9 s
Time (Rattus norvegicus [4]): 3798.6 s
Drug metabolism [5]: 47.44 µg/kg

Cc1cccc([C@H](C)c2cn(C(=O)OCC(C)C)cn2)c1C.Cl
ED50 (Rattus norvegicus [1]): 0.0359 mg/kg
survival [2]: 100%
Time (Rattus norvegicus [3]): 151.9 s
Time (Rattus norvegicus [4]): 2802.9 s
Drug metabolism [5]: 42.7 µg/kg
Activity [6]: 34.65%
Activity [9]: Toxic

CCC(=O)OC(C)n1cnc([C@@H](C)c2cccc(C)c2C)c1.Cl (stereo not given in full)
ED50 (Rattus norvegicus [1]): 0.035 mg/kg
Drug metabolism [10]: Metabolite_Detected
survival [2]: 100%
Time (Rattus norvegicus [3]): 159.8 s
Time (Rattus norvegicus [4]): 2295.6 s
Drug metabolism [5]: 41.58 µg/kg
Activity [7]: 32.17%
Activity [9]: Toxic

CCCOC(=O)n1cnc([C@@H](C)c2cccc(C)c2C)c1
ED50 (Rattus norvegicus [1]): 0.0255 mg/kg
survival [2]: 100%
Time (Rattus norvegicus [3]): 142.1 s
Time (Rattus norvegicus [4]): 2605.7 s
Drug metabolism [5]: 31.7 µg/kg
Activity [6]: 28.23%

CCOC(=O)COC(=O)OCn1cnc([C@@H](C)c2cccc(C)c2C)c1.Cl
ED50 (Rattus norvegicus [1]): 0.0468 mg/kg
survival [2]: 100%
Time (Rattus norvegicus [3]): 68.2 s
Time (Rattus norvegicus [4]): 3177.7 s
Drug metabolism [5]: 47.22 µg/kg
Activity [7]: 28.49%
Activity [9]: Toxic

CC(=O)OC(C)n1cnc([C@@H](C)c2cccc(C)c2C)c1.Cl (stereo not given in full)
ED50 (Rattus norvegicus [1]): 0.0263 mg/kg
Drug metabolism [10]: Metabolite_Detected
survival [2]: 100%
Time (Rattus norvegicus [3]): 117 s
Time (Rattus norvegicus [4]): 2274.1 s
Drug metabolism [5]: 32.61 µg/kg
Activity [6]: 14.67%

CCC(=O)OCn1cnc([C@@H](C)c2cccc(C)c2C)c1.Cl
ED50 (Rattus norvegicus [1]): 0.0268 mg/kg
Drug metabolism [8]: Metabolite_Detected
survival [2]: 100%
Time (Rattus norvegicus [3]): 184.4 s
Time (Rattus norvegicus [4]): 2325.8 s
Drug metabolism [5]: 33.32 µg/kg
Activity [6]: 34.92%

COC(=O)n1cnc([C@@H](C)c2cccc(C)c2C)c1.Cl
ED50 (Rattus norvegicus [1]): 0.02 mg/kg
Drug metabolism [11]: Metabolite_Detected
survival [2]: 100%
Time (Rattus norvegicus [3]): 219.5 s
Time (Rattus norvegicus [4]): 2018.2 s
Drug metabolism [5]: 25.77 µg/kg
Activity [6]: 17.35%

Cc1cccc([C@H](C)c2cn(COC(=O)C3CCC3)cn2)c1C.Cl
ED50 (Rattus norvegicus [1]): 0.034 mg/kg
survival [2]: 100%
Time (Rattus norvegicus [3]): 214.4 s
Time (Rattus norvegicus [4]): 2841.2 s
Drug metabolism [5]: 39.02 µg/kg

Cc1cccc([C@H](C)c2cn(COC(=O)C(C)(C)C)cn2)c1C.Cl
ED50 (Rattus norvegicus [1]): 0.0551 mg/kg
survival [2]: 100%
Time (Rattus norvegicus [3]): 157.9 s
Time (Rattus norvegicus [4]): 3091.8 s
Drug metabolism [5]: 62.94 µg/kg
Activity [6]: 14.57%
Activity [9]: Toxic
Activity [12]: -27.08%

COC(=O)CCC(=O)OCn1cnc([C@@H](C)c2cccc(C)c2C)c1.Cl
ED50 (Rattus norvegicus [1]): 0.0301 mg/kg
Drug metabolism [13]: Metabolite_Detected
survival [2]: 100%
Time (Rattus norvegicus [3]): 78.9 s
Time (Rattus norvegicus [4]): 2733.9 s
Drug metabolism [5]: 31.71 µg/kg
Activity [9]: Toxic

Cc1cccc([C@H](C)c2cn(COC(=O)c3ccccc3)cn2)c1C.Cl
ED50 (Rattus norvegicus [1]): 0.0595 mg/kg
Drug metabolism [10]: Metabolite_Detected
survival [2]: 100%
Time (Rattus norvegicus [3]): 204.1 s
Time (Rattus norvegicus [4]): 4457.7 s
Drug metabolism [5]: 64.29 µg/kg
Activity [9]: Toxic

Cc1cccc([C@H](C)c2cn(COC(=O)OC(C)C)cn2)c1C.Cl
ED50 (Rattus norvegicus [1]): 0.0311 mg/kg
survival [2]: 100%
Time (Rattus norvegicus [3]): 305.2 s
Time (Rattus norvegicus [4]): 2458.7 s
Drug metabolism [5]: 35.33 µg/kg

Cc1cccc([C@H](C)c2cn(C(=O)OC(C)C)cn2)c1C.Cl
ED50 (Rattus norvegicus [1]): 0.0446 mg/kg
Drug metabolism [11]: Metabolite_Detected
survival [2]: 100%
Time (Rattus norvegicus [3]): 239.3 s
Time (Rattus norvegicus [4]): 3984.1 s
Drug metabolism [5]: 55.39 µg/kg
Activity [6]: 22.4%
Activity [9]: Toxic
Activity [14]: -22.88%
Activity [12]: -22.88%

CCCC(=O)OCn1cnc([C@@H](C)c2cccc(C)c2C)c1.Cl
ED50 (Rattus norvegicus [1]): 0.0211 mg/kg
Drug metabolism [8]: Metabolite_Detected
survival [2]: 100%
Time (Rattus norvegicus [3]): 265 s
Time (Rattus norvegicus [4]): 1941.9 s
Drug metabolism [5]: 25.15 µg/kg
Activity [6]: 20.07%
Activity [9]: Toxic
Activity [12]: -29.92%

COC(=O)OCn1cnc([C@@H](C)c2cccc(C)c2C)c1.Cl
ED50 (Rattus norvegicus [1]): 0.0232 mg/kg
survival [2]: 100%
Time (Rattus norvegicus [3]): 259.6 s
Time (Rattus norvegicus [4]): 2017.2 s
Drug metabolism [5]: 28.68 µg/kg
Activity [6]: 16.35%

CCOC(=O)CCC(=O)OCn1cnc([C@@H](C)c2cccc(C)c2C)c1.Cl
ED50 (Rattus norvegicus [1]): 0.0273 mg/kg
Drug metabolism [13]: Metabolite_Detected
survival [2]: 100%
Time (Rattus norvegicus [3]): 116 s
Time (Rattus norvegicus [4]): 2484.1 s
Drug metabolism [5]: 27.67 µg/kg
Activity [9]: Toxic

Cc1cccc([C@H](C)c2cn(COC(=O)C3CC3)cn2)c1C.Cl
ED50 (Rattus norvegicus [1]): 0.0298 mg/kg
survival [2]: 100%
Time (Rattus norvegicus [3]): 195.2 s
Time (Rattus norvegicus [4]): 2410 s
Drug metabolism [5]: 35.67 µg/kg

Cc1cccc([C@H](C)c2cn(COC(=O)OC3CC3)cn2)c1C.Cl
ED50 (Rattus norvegicus [1]): 0.0232 mg/kg
Drug metabolism [8]: Metabolite_Detected
Drug metabolism [15]: Metabolite_Detected
survival [2]: 100%
Time (Rattus norvegicus [3]): 92.1 s
Time (Rattus norvegicus [4]): 2795.7 s
Drug metabolism [5]: 26.53 µg/kg
Activity [6]: 37.25%

CCOC(=O)OCn1cnc([C@@H](C)c2cccc(C)c2C)c1.Cl
ED50 (Rattus norvegicus [1]): 0.0292 mg/kg
survival [2]: 100%
Time (Rattus norvegicus [3]): 122.5 s
Time (Rattus norvegicus [4]): 2887.7 s
Drug metabolism [5]: 34.47 µg/kg
Activity [9]: Toxic
Activity [14]: -24.88%

Cc1cccc([C@H](C)c2cn(COC(=O)OC3CCC3)cn2)c1C.Cl
ED50 (Rattus norvegicus [1]): 0.0268 mg/kg
Drug metabolism [8]: Metabolite_Detected
Drug metabolism [15]: Metabolite_Detected
survival [2]: 100%
Time (Rattus norvegicus [3]): 185 s
Time (Rattus norvegicus [4]): 3189.5 s
Drug metabolism [5]: 29.48 µg/kg
Activity [6]: 34.79%
Activity [9]: Toxic

COC(=O)COC(=O)OCn1cnc([C@@H](C)c2cccc(C)c2C)c1.Cl
ED50 (Rattus norvegicus [1]): 0.0487 mg/kg
survival [2]: 100%
Time (Rattus norvegicus [3]): 94.9 s
Time (Rattus norvegicus [4]): 3795.2 s
Drug metabolism [5]: 50.93 µg/kg
Activity [7]: 31.3%
Activity [9]: Toxic

Cc1cccc([C@H](C)c2cnc[nH]2)c1C [DEXMEDETOMIDINE]
ED50 (Rattus norvegicus [1]): 0.0168 mg/kg
survival [2]: 100%
Time (Rattus norvegicus [3]): 87.8 s
Time (Rattus norvegicus [4]): 3312 s
Drug metabolism [5]: 28.38 µg/kg
Activity [6]: 43.55%
Activity [14]: -41.07%
Activity [12]: -33.58%
